Where two headings read alike, the source gives them in different places.
Experiments:
P. aeruginosa biofilm [1] = format: cell-based, Pseudomonas aeruginosa
P. aeruginosa biofilm [2] = format: cell-based, Pseudomonas aeruginosa; remark: listed apart in the source
P. aeruginosa = format: cell-based, Pseudomonas aeruginosa; details: SWF; for recovery of bacteria in the same fresh media after treatment: read after 2, 4 and 24 hours; for dilution in which bacteria recovered when agent used alone: vs combination
Description: For the MBC and recovery potency of bacteria. […] The last well that had no bacterial growth was defined as the MBC.

P. aeruginosa PAO1 = assay: In vitro resistance acquisition, serial passage; format: cell-based, Pseudomonas aeruginosa; details: SWF, sublethal (1/8 MIC) concentration, 7 days
Procedure: Serial passage of growth as a screen for resistant P. aeruginosa PAO1 was carried out for 7 days in SWF supplemented with sublethal (1/8 dilution from the MIC) concentrations of Ag, Te, and Ag—Te mixture. […] Strains of P. aeruginosa PAO1 were grown in sublethal (1/8th MIC) concentrations of Ag, Te or a mixture of the two antimicrobials, for 7 days.
The impact of the MBAs on antibiotic resistance was also tested. Serial passage of growth as a screen for resistant P. aeruginosa PAO1 was performed for 7 days in SWF supplemented with sublethal (1/8 dilution from the MIC) concentrations of Ag, Te, and Ag—Te mixture.

39 clinical isolates = assay: Antibiotic resistance of the clinical isolates; format: cell-based; details: out of 39 clinical isolates

Molecule | Inhibition of P. aeruginosa biofilm (MBIC) (P. aeruginosa biofilm [1]; LB, in 48 h) [mM] | Inhibition of P. aeruginosa biofilm (MBIC) (P. aeruginosa biofilm [1]; MHB, in 48 h) [mM] | Inhibition of P. aeruginosa biofilm (MBIC) (P. aeruginosa biofilm [1]; SWF, in 48 h) [mM] | Eradication of P. aeruginosa biofilm (MBEC) (P. aeruginosa biofilm [2]; LB, in 24 h) [mM] | Eradication of P. aeruginosa biofilm (MBEC) (P. aeruginosa biofilm [2]; MHB, in 24 h) [mM] | Eradication of P. aeruginosa biofilm (MBEC) (P. aeruginosa biofilm [2]; SWF, in 24 h) [mM] | recovery of bacteria in the same fresh media after treatment (P. aeruginosa) | dilution in which bacteria recovered when agent used alone (P. aeruginosa) | occurrence of resistance during serial passage (P. aeruginosa PAO1) | Inhibition of P. aeruginosa biofilm (MBIC) (P. aeruginosa biofilm [1]) [mM] | Eradication of P. aeruginosa biofilm (MBEC) (P. aeruginosa biofilm [2]) [mM] | clinical isolates resistant to the antibiotic (39 clinical isolates)
O=[N+]([O-])[O-].[Ag+] [Ag, silver nitrate] | 0.125 | 0.03 | 0.25 | 0.065 | 0.03 | 0.5 | couldn't inhibit the recovery of bacteria | three-fold higher dilution | after two days | – | – | –
[Au+3].[Cl-].[Cl-].[Cl-].[Cl-] [Au, tetrachloroaurate] | 0.5 | 0.25 | 0.25 | 0.25 | 0.25 | 1 | – | – | – | – | – | –
O=S(=O)([O-])[O-].[Cu+2] [Cu, copper sulfate] | – | – | – | – | – | – | – | – | – | 8 | 6.25 | –
O=[N+]([O-])[O-].O=[N+]([O-])[O-].O=[N+]([O-])[O-].[Ga+3] [Ga, gallium nitrate] | 12.5 | 12.5 | 25 | 3 | 3 | 12.5 | – | – | – | – | – | –
O=[Se](O)O [Se, sodium selenite] | >50 | >50 | >50 | >50 | >50 | >50 | – | – | – | – | – | –
O=[Te]([O-])[O-].[K+].[K+] [Te, potassium tellurite] | 0.5 | 0.5 | 0.5 | 0.5 | 0.5 | 0.5 | couldn't inhibit the recovery of bacteria | two-fold higher dilution | after five days | – | – | –
gentamicin | – | – | – | – | – | – | – | – | – | – | – | 15 (38%) isolates (%)

From patent US20250169501A1, “Metal(loid)-Based Compositions and Uses Thereof Against Bacterial Biofilms” (CCREST Laboratories Inc., priority 2022, published 2025)
